Data taken from patent US12091425B2 (AMGEN INC., priority 2016, dated 2024).

What follows are compounds tested against T1, Mcl-1/Bim interaction, recombinant human Mcl-1 (171-327) (Homo sapiens, UniProt Q07820) (assay: Cell free Mcl-1: Bim Affinity Assay (Mcl-1 HTRF)). Conditions: cell free Mcl-1:Bim TR-FRET, recombinant human Mcl-1 (171-327).
T1 construct: made in house
Type: binding
Method: Cell free Mcl-1: Bim Affinity Assay (Mcl-1 HTRF)
The inhibition of the Mcl-1/Bim interaction was measured using a time-resolved fluorescence resonance energy transfer (TR-FRET) assay. […] A biotinylated peptide derived from human Bim (residues 51-76) was purchased from CPC Scientific (San Jose, CA). The TR-FRET assay was conducted in a 384-well white OptiPlatem (PerkinElmer, Waltham, MA) in a total volume of 40 μL. […] The reaction plates were further incubated overnight and then were read on an Envision® multimode reader (PerkinElmer). […] The IC50 values of test compounds were determined from duplicate data by analyzing competition curves using a four-parameter sigmoidal model in GraphPad Prism (GraphPad Software, San Diego, CA) or in Genedata Screener® (Genedata, Basel, Switzerland).

T1 sequence (Q07820 171-327): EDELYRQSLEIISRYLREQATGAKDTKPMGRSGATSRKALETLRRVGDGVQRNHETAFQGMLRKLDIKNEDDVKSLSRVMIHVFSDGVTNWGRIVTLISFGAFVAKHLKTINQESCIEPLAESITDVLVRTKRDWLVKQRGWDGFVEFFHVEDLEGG

Structure (SMILES) | IC50
COc1cccc(NC(=O)C[C@@H]2CC/C=C/[C@H](O)[C@@H]3CC[C@H]3CN3C[C@@]4(CCCc5cc(Cl)ccc54)COc4ccc(cc43)C(=O)NS2(=O)=O)c1 (single isomer, unassigned) [Example 628] | 3.9 nM
COc1ccc(C)c(NC(=O)C[C@@H]2CC/C=C/[C@H](O)[C@@H]3CC[C@H]3CN3C[C@@]4(CCCc5cc(Cl)ccc54)COc4ccc(cc43)C(=O)NS2(=O)=O)c1 (single isomer, unassigned) [Example 629] | 2.3 nM
O=C(C[C@@H]1CC/C=C/[C@H](O)[C@@H]2CC[C@H]2CN2C[C@@]3(CCCc4cc(Cl)ccc43)COc3ccc(cc32)C(=O)NS1(=O)=O)Nc1ccccc1 (single isomer, unassigned) [Example 630] | 1.61 nM
O=C1C[C@H](O)[C@@H]2CC[C@H]2CN2C[C@@]3(CCCc4cc(Cl)ccc43)COc3ccc(cc32)C(=O)NS(=O)(=O)CCN1 (single isomer, unassigned) [Example 680] | 26.8 nM
O=C1C[C@H](O)[C@@H]2CC[C@H]2CN2C[C@@]3(CCCc4cc(Cl)ccc43)COc3ccc(cc32)C(=O)NS(=O)(=O)CCN1 (single isomer, unassigned) [Example 681] | 29 nM
COC1C=CCCC(C(C)(C)O)S(=O)(=O)NC(=O)c2ccc3c(c2)N(CC2CCC21)CC1(CCCc2cc(Cl)ccc21)CO3 (single isomer, unassigned) [Example 682] | 1.78 nM
O=C1NS(=O)(=O)C[C@@H](C2CC2)C/C=C/[C@H](O)[C@@H]2CC[C@H]2CN2C[C@@]3(CCCc4cc(Cl)ccc43)COc3ccc1cc32 (single isomer, unassigned) [Example 684] | 11 nM
CC[C@@H]1CCCC[C@H](O)[C@@H]2CC[C@H]2CN2C[C@@]3(CCc4cc(Cl)ccc43)COc3ccc(cc32)C(=O)NS1(=O)=O (single isomer, unassigned) [Example 695, (1S,3′R,6′R,7′S,12′R)-5-chloro-12′-ethyl-7′-hydroxy-2,3-dihydro-15′H-spiro[indene-1,22′-[20]oxa[13]thia[1,14]diazatetracyclo[14.7.2.0^3,6.0^19,24]pentacosa [16,18,24]trien]-15′-one 13′,13′-dioxide or (1S,3′R,6′R,7′S,12′S)-5-chloro-12′-ethyl-7′-hydroxy-2,3-dihydro-15′H-spiro[indene-1,22′-[20]oxa[13]thia[1,14]diazatetracyclo[14.7.2.0^3,6.0^19,24]pentacosa [16,18,24]trien]-15′-one 13′,13′-dioxide] | 2.04 nM
CC(C)(O)[C@@H]1CC/C=C/[C@H](O)[C@@H]2CC[C@H]2CN2C[C@@]3(CCCc4cc(Cl)ccc43)COc3ccc(cc32)C(=O)NS1(=O)=O (single isomer, unassigned) [Example 696] | 0.305 nM
CC(C)(O)[C@@H]1CC/C=C/[C@H](O)[C@@H]2CC[C@H]2CN2C[C@@]3(CCCc4cc(Cl)ccc43)COc3ccc(cc32)C(=O)NS1(=O)=O (single isomer, unassigned) [Example 697] | 0.746 nM
CC[C@H]1CC/C=C/[C@H](O)[C@@H]2CC[C@H]2CN2C[C@@]3(CCc4cc(Cl)ccc43)COc3ccc(cc32)C(=O)NS1(=O)=O (single isomer, unassigned) [Example 699] | 0.649 nM
CC[C@H]1CC/C=C/[C@H](O)[C@@H]2CC[C@H]2CN2C[C@@]3(CCc4cc(Cl)ccc43)COc3ccc(cc32)C(=O)NS1(=O)=O (single isomer, unassigned) [Example 700] | 27.7 nM
O=C1NS(=O)(=O)C[C@H](c2ccccc2)C/C=C/[C@H](O)[C@@H]2CC[C@H]2CN2C[C@@]3(CCCc4cc(Cl)ccc43)COc3ccc1cc32 (single isomer, unassigned) [Example 704] | 40.5 nM
O=C1NS(=O)(=O)C[C@H](CO)/C=C/C[C@H](O)[C@@H]2CC[C@H]2CN2C[C@@]3(CCCc4cc(Cl)ccc43)COc3ccc1cc32 (single isomer, unassigned) [Example 706] | 4.51 nM
O=C1NS(=O)(=O)C[C@@H](CO)/C=C/C[C@H](O)[C@@H]2CC[C@H]2CN2C[C@@]3(CCCc4cc(Cl)ccc43)COc3ccc1cc32 (single isomer, unassigned) [Example 707] | 2.25 nM
O=C1NS(=O)(=O)C[C@H](CO)CCC[C@H](O)[C@@H]2CC[C@H]2CN2C[C@@]3(CCCc4cc(Cl)ccc43)COc3ccc1cc32 (single isomer, unassigned) [Example 708] | 1.12 nM
O=C1NS(=O)(=O)[C@H](CO)CCCC[C@H](O)[C@@H]2CC[C@H]2CN2C[C@@]3(CCCc4cc(Cl)ccc43)COc3ccc1cc32 (single isomer, unassigned) [Example 712] | 0.995 nM
O=C1NS(=O)(=O)[C@@H](CO)CCCC[C@H](O)[C@@H]2CC[C@H]2CN2C[C@@]3(CCCc4cc(Cl)ccc43)COc3ccc1cc32 (single isomer, unassigned) [Example 713] | 1.71 nM

Structure (SMILES) | IC50
COC1C=CCC(OC)C(C)S(=O)(=O)NC(=O)c2ccc3c(c2)N(CC2CCC21)CC1(CCCc2cc(Cl)ccc21)CO3 (single isomer, unassigned) [Example 717] | 28.6 nM
CC(C)[C@@H]1CCCC[C@H](O)[C@@H]2CC[C@H]2CN2C[C@@]3(CCCc4cc(Cl)ccc43)COc3ccc(cc32)C(=O)NS1(=O)=O (single isomer, unassigned) [Example 752] | 4.39 nM
CC(C)[C@@H]1CCCC[C@@H](O)[C@@H]2CC[C@H]2CN2C[C@@]3(CCCc4cc(Cl)ccc43)COc3ccc(cc32)C(=O)NS1(=O)=O (single isomer, unassigned) [Example 754] | 8.93 nM
C[C@H]1C/C=C/[C@H](O)[C@@H]2CC[C@H]2CN2C[C@@]3(CCCc4cc(Cl)ccc43)COc3ccc(cc32)C(=O)NS1(=O)=O (single isomer, unassigned) [Example 759] | 3.98 nM
C[C@H]1CCCC(=O)[C@@H]2CC[C@H]2CN2C[C@@]3(CCCc4cc(Cl)ccc43)COc3ccc(cc32)C(=O)NS1(=O)=O (single isomer, unassigned) [Example 760] | 15.8 nM
CC[C@@H]1/C=C/C[C@H](O)[C@@H]2CC[C@H]2CN2C[C@@]3(CCCc4cc(Cl)ccc43)COc3ccc(cc32)C(=O)NS1(=O)=O (single isomer, unassigned) [Example 766] | 6.5 nM
CCC1CCCC(O)C2CCC2CN2CC3(CCCc4cc(Cl)ccc43)COc3ccc(cc32)C(=O)NS1(=O)=O (single isomer, unassigned) [Example 768] | 2.24 nM
COC[C@H]1C/C=C/[C@H](O)[C@@H]2CC[C@H]2CN2C[C@@]3(CCCc4cc(Cl)ccc43)COc3ccc(cc32)C(=O)NS1(=O)=O (single isomer, unassigned) [Example 772] | 5.2 nM
COC[C@@H]1C/C=C/[C@H](O)[C@@H]2CC[C@H]2CN2C[C@@]3(CCCc4cc(Cl)ccc43)COc3ccc(cc32)C(=O)NS1(=O)=O (single isomer, unassigned) [Example 773] | 2.35 nM
COC[C@@]1(C)C/C=C/[C@H](O)[C@@H]2CC[C@H]2CN2C[C@@]3(CCCc4cc(Cl)ccc43)COc3ccc(cc32)C(=O)NS1(=O)=O (single isomer, unassigned) [Example 774] | 1.72 nM
CC(=O)N1CC[C@H](O)[C@@H]2CC[C@H]2CN2C[C@@]3(CCCc4cc(Cl)ccc43)COc3ccc(cc32)C(=O)NS(=O)(=O)CC1 (single isomer, unassigned) [Example 778] | 6.89 nM
O=C1NS(=O)(=O)CCOC[C@@H](O)C[C@H]2CC[C@H]2CN2C[C@@]3(CCCc4cc(Cl)ccc43)COc3ccc1cc32 (single isomer, unassigned) [Example 780, (3R,6R,8S,22S)-6′-chloro-8-hydroxy-3′,4′-dihydro-2′H,15H-spiro[10,20-dioxa-13-thia-1,14-diazatetracyclo[14.7.2.0^3,6.0^19,24]pentacosa-16,18,24-triene-22, 1′-naphthalen]-15-one-13, 13-dioxide or (3R,6R,8R,22S)-6′-chloro-8-hydroxy-3′,4′-dihydro-2′H,15H-spiro[10,20-dioxa-13-thia-1,14-diazatetracyclo[14.7.2.0^3,6.0^19,24]pentacosa-16,18,24-triene-22, 1′-naphthalen]-15-one-13, 13-dioxide] | 4.84 nM
O=C1NS(=O)(=O)CCOCCC[C@@H]2CC[C@H]2CN2C[C@@]3(CCCc4cc(Cl)ccc43)COc3ccc1cc32 (single isomer, unassigned) [Example 815] | 1.26 nM
O=C1NS(=O)(=O)CCOCCC[C@@H]2CC[C@H]2CN2C[C@@]3(CCc4cc(Cl)ccc43)COc3ccc1cc32 (single isomer, unassigned) [Example 816] | 4.72 nM
O=C1NS(=O)(=O)CCC/C=C/C[C@H](O)[C@@H]2CC[C@H]2CN2C[C@@]3(CCCc4cc(Cl)ccc43)COc3ccc1cc32 (single isomer, unassigned) [Example 833, (1S,3′R,6′R,7′S,9′E)-6-chloro-7′-hydroxy-3,4-dihydro-2H,16′H-spiro[naphthalene-1,23′-[21]oxa[14]thia[1,15]diazatetracyclo[15.7.2.0^3,6.0^20,25]hexacosa[9,17,19,25]tetraen]-16′-one 14′,14′-dioxide or (1S,3′R,6′R,7′S,9′Z)-6-chloro-7′-hydroxy-3,4-dihydro-2H,16′H-spiro[naphthalene-1,23′-[21]oxa[14]thia[1,15]diazatetracyclo[15.7.2.0^3,6.0^20,25]hexacosa [9,17,19,25]tetraen]-16′-one 14′,14′-dioxide] | 5.12 nM
O=C1NS(=O)(=O)CC/C=C/C[C@@H](O)[C@@H]2CC[C@H]2CN2C[C@@]3(CCCc4cc(Cl)ccc43)COc3ccc1cc32 (single isomer, unassigned) [Example 844] | 11.1 nM
O=C1NS(=O)(=O)CC/C=C\C[C@@H](O)[C@@H]2CC[C@H]2CN2C[C@@]3(CCCc4cc(Cl)ccc43)COc3ccc1cc32 (single isomer, unassigned) [Example 845] | 4.32 nM
